{
  "source": "patent US20210060044A1",
  "about": "“METHODS FOR TREATING BLADDER CANCER BY ACTIVATION OF HEDGEHOG SIGNALING USING A M[…]” (POSTECH Research and Business Development Foundation, priority 2019, published 2021)",
  "key": {"BBN-induced tumors": {"tested_on": "BBN-induced tumors", "details": "TM three days, transplantation, treatment 1.5 months", "protocol": "(§6) For a gene deletion experiment, Col1a2^CreER (RRID: IMSR_JAX: 029235) mice were mated with the Smo^flox/flox (RRID: IMSR_JAX: 007926) or Gli2^flox/flox (RRID: IMSR_JAX: 004526) strains, thereby obtaining Col1a2^CreER; Smo^flox/flox or Col1a2^CreER;Gli2^flox/flox mice.\nThe mice were administered 8 mg of tamoxifen (TM; Sigma) per 30 g of body weight by oral gavage for three consecutive days. Male mice aged 8 to 10 weeks were used. […] The dosing duration is described in the brief description of the drawings. In each experiment, the mice were randomly selected for a drug/TM or control-treated group. The experiments involving mice were performed under isoflurane anesthesia.\nBladder tumors were dissociated into single cells as described above. The cells were resuspended in 80 ml DMEM containing 50% Matrigel (BD Bioscience), and then submucosally injected into the anterior aspect of the bladder dome using a 29-gauge insulin syringe. An abdominal incision and skin were closed with a 4-0 nylon suture, and the surgical site was disinfected with alcohol. Bladder tumor organoids were selected, and resuspended in a 50% organoid medium and 50%"}, "[1]": {"tested_on": "luminal and basal signatures", "details": "tumor allografts, RNA-Seq", "experimental": "Total RNA was extracted with a TRIzol reagent (Thermo Fisher) according to the manufacturer's instructions. RNA-seq libraries were constructed using the TruSeq sample prep kit V2 (Illumina). […] The RNA-seq libraries were sequenced using a NextSeq platform with 75-bp single-end reads.\nDifferentially expressed genes were analyzed using Cufflinks tools (Trapnell et al., 2012). From all annotated genes, genes were removed when the rpkm average of all sequenced samples is less than 1.0, such that the depth to which the genes are assigned may be low. GSEA was performed according to the instructions (RRID: SCR_003199). To generate a customized gene set for a luminal marker and a basal marker, a representative gene for each signature was obtained from a previous study (Damrauer et al., 2014). The RNA-seq data set used herein was deposited in NCBI GEO (Accession No.: GSE129441).\nIn addition, using standard luminal and basal signatures obtained from previous research, GSEA of tumor allografts treated with the vehicle control and 5′-azacitidine from RNA-Seq data was performed."}, "[2]": {"tested_on": "luminal markers (FOXA1 and GATA3) and basal markers (CDH3 and KRT6A)", "details": "J82 tumor xenografts", "experimental": "(§1) Subsequently, the RNA samples were dissolved in RNase-free water, and their concentration and purity were measured with a spectrophotometer. The TAE/formamide electrophoresis method (Masek et al., 2005) was used for RNA quality analysis. For quantitative RT-PCR of mRNA transcripts, first-strand cDNA was synthesized using a high-capacity cDNA reverse transcriptase kit (Applied Biosystems) containing oligo dT. Quantitative RT-PCR was performed using SYBR Green Supermix (Applied Biosystems) and a one-step cycler (Applied Biosystems), and gene expression was normalized to the housekeeping gene HPRT1.\n(§2) To investigate the functional role of SHH expression in the growth of human bladder tumors and the effects of the Hh/BMP signaling feedback between tumors and the stroma on the subtype conversion of human muscle-invasive urothelial carcinoma, xenografts in which J82 cells were orthotopically injected into immunocompromised mice (NOD/SCID/IL2Rgnull) (14 mice) were treated with 5′-azacitidine for one month, and orthotopic xenografts in the mice treated with the vehicle control (7 mice) or 5′-azacitidine (7 mice) were subjected to H&E staining."}, "Shh gene [3]": {"tested_on": "Shh gene", "details": "orthotopic BBN-induced mouse tumor, 1 mg per kg every other day for 2 weeks", "experimental": "(§3) Human or mouse bladder samples were snap-frozen in liquid nitrogen, homogenized with a mortar and a pestle, and RNA was extracted using an RNeasy Plus Mini Kit (Qiagen).\nas §1"}, "Shh gene [4]": {"tested_on": "Shh gene", "details": "tumor organoids, 1 μM for four consecutive days", "experimental": "as §1"}, "[5]": {"tested_on": "luminal markers (Upk1a, Upk1b, Upk2, Upk3a, Upk3b, Krt20, Krt18)", "details": "tumor allografts; normalized to Krt5", "experimental": "as §3, §1\n(§4) To evaluate the effect of DNA methyltransferase inhibition on the growth of bladder cancer under immunocompromised conditions, nude mice (14 mice) orthotopically injected with BBN-induced bladder tumor cells were divided into a vehicle control (7 mice) and a 5′-azacitidine-treated group (7 mice), and then treated with a vehicle and 5′-azacitidine for 2 weeks, respectively. In addition, allograft sections of the vehicle control or 5′-azacitidine-treated mice were subjected to H&E staining, and the experimental scheme is shown in FIG. 4A."}, "[6]": {"tested_on": "BBN-induced bladder tumor cells", "details": "nude mice, treated 2 weeks", "description": "as §4"}, "Ck18": {"tested_on": "Ck18", "details": "tumor allografts, nude mice", "description": "as §4"}, "[7]": {"tested_on": "CpG shore upstream of the CpG island of the Shh promoter region", "details": "1 mg per kg every other day for 2 weeks; vehicle control 62%", "protocol": "(§7) The mice were administered 8 mg of tamoxifen (TM; Sigma) per 30 g of body weight by oral gavage for three consecutive days. Male mice aged 8 to 10 weeks were used. […] In each experiment, the mice were randomly selected for a drug/TM or control-treated group. The experiments involving mice were performed under isoflurane anesthesia.\nThe DNA methylation status of mouse and human Shh was confirmed using genomic DNA bisulfite sequencing. For bisulfite conversion, 1 μg of genomic DNA was converted using a MethylEdge Bisulfite Conversion System (Promega) according to the manufacturer's instructions. The genomic sequences of the regulatory regions of mouse Shh and human SHH were obtained from the NCBI nucleotide database (Mus musculus: NC_000071.6, Homo sapiens: NG_007504.2), and the CpG island (island) and CpG shores in the regulatory region were identified using Methprimer 2.0 (Li and Dahiya, 2002) (RRID: SCR_010269). The 2kb regions upstream and downstream of the CpG island were referred to as a “CpG upshore” and a “CpG downshore,” respectively. […]\n(§8) The sequencing data was assembled using SnapGene software (https://snapgene.com/, RRID: SCR_015053) and the MUSCLE: multiple sequence alignment tool (haps://www.ebi.ac.uk/Tools/msa/muscle/ RRID: SCR_011812). […] The methylated CpG sites were counted and distinguished from unmethylated CpG sites."}, "[8]": {"tested_on": "BBN-induced muscle-invasive urothelial carcinoma", "details": "Col1a2CreER;Smoflox/flox or Col1a2CreER;Gli2flox/flox mice, BBN 6 months", "protocol": "as §6\nThe mice were administered 8 mg of tamoxifen (TM; Sigma) per 30 g of body weight by oral gavage for three consecutive days. Male mice aged 8 to 10 weeks were used. […] In each experiment, the mice were randomly selected for a drug/TM or control-treated group. The experiments involving mice were performed under isoflurane anesthesia. All procedures were performed according to a protocol approved by the Institutional Animal Care and Use Committee at POSTECH (IACUC number: POSTECH-2017-0094).\n(§9) 0.1% N-butyl-N-4-hydroxybutyl nitrosamine (BBN, TCI) was dissolved in drinking water, and the BBN-containing water was placed in a dark bottle, and provided ad libitum to mice for 4 to 6 months. The BBN-containing water was replaced twice a week. Bladders were collected and analyzed 4 to 6 months after BBN administration."}, "T24": {"tested_on": "T24", "experimental": "(§5) Frozen human bladder tissue samples were obtained from the tissue bank of Seoul National University Hospital. For fresh bladder tumor samples, 0.5 to 1-cm^3 bladder tissue specimens were obtained from patients undergoing cystectomy or TURBT according to a protocol approved by the SNUH Institutional Review Board (IRB No.: 1607-135-777). Informed consent to patient information provision and publishing was obtained from the patients. The cancer tissues were evaluated before transport to POSTECH for additional analysis. For experiments for bladder cancer cell lines, J82 (RRID: CVCL_0359), T24 (RRID: CVCL_0554) and TCC (RRID: CVCL_1738) were used. All cell lines were authenticated by a STR profiling method, and tested negative for mycoplasma contamination.\nas §1"}, "TCC-SUP": {"tested_on": "TCC-SUP", "experimental": "as §5, §1"}, "J82": {"tested_on": "J82", "experimental": "as §5, §1"}, "[9]": {"tested_on": "BBN-induced bladder tumor cells", "protocol": "as §7\nBladder tumors were dissociated into single cells as described above. The cells were resuspended in 80 ml DMEM containing 50% Matrigel (BD Bioscience), and then submucosally injected into the anterior aspect of the bladder dome using a 29-gauge insulin syringe.\n(§10) Tumor specimens were fixed in 10% neutral-buffered formalin for 12 hours, embedded in paraffin, and then sectioned into 4-um thick sections using a microtome. The slides were stained with hematoxylin and counter-stained with eosin for histological analysis. For immunostaining, tumor samples were embedded in an OCT compound (Tissue-Tek) and sectioned into 10-um-thick sections with a cryostat (Leica).\nTo evaluate the effect of the inhibition of DNA methyltransferase (DNMT) on the growth of bladder cancer, recently established transplantation models were used, and these models allow the proliferation of tumor cells transplanted in a microenvironment in vivo by injecting bladder cancer cells into the wall of the bladder dome."}, "J82 cells": {"tested_on": "J82 cells", "details": "J82 orthotopic xenograft, treated one month; vehicle: full-fledged muscle-invasive carcinoma", "experimental": "as §2"}, "[10]": {"tested_on": "CpG shore upstream of the CpG island of the Shh promoter region", "details": "tumor organoids, 1 μM for four consecutive days; vehicle control 73%", "protocol": "The DNA methylation status of mouse and human Shh was confirmed using genomic DNA bisulfite sequencing. For bisulfite conversion, 1 μg of genomic DNA was converted using a MethylEdge Bisulfite Conversion System (Promega) according to the manufacturer's instructions. The genomic sequences of the regulatory regions of mouse Shh and human SHH were obtained from the NCBI nucleotide database (Mus musculus: NC_000071.6, Homo sapiens: NG_007504.2), and the CpG island (island) and CpG shores in the regulatory region were identified using Methprimer 2.0 (Li and Dahiya, 2002) (RRID: SCR_010269). […]\nas §8\nBBN-induced bladder tumors were minced, and then incubated in DMEM (Gibco) containing collagenase I and II (20 mg/ml each) and thermolysin (250 KU/ml) at 37° C. for 2 hours, followed by 5-minute trituration every 30 minutes. […] After lysis of red blood cells in ACK lysis buffer (Gibco), the cells were washed with DMEM containing 10% fetal bovine serum (Millipore) and counted using a hemocytometer (Sigma). […]"}, "[11]": {"tested_on": "BBN-induced invasive carcinoma", "details": "BBN 4 months, then treatment 2 months with continued BBN; found in vehicle control", "protocol": "as §7, §9, §10"}},
  "note": "Where two headings read alike, the source gives them in different places.",
  "data": [
    {"smiles": "Nc1ncn([C@@H]2O[C@H](CO)[C@@H](O)[C@H]2O)c(=O)n1", "note": "[5′-azacitidine]", "values": [
      {"measurement": "anticancer propagation effect in strains with genetically inhibited stromal Hh signaling pathway", "setting": "BBN-induced tumors", "result": "disappeared"},
      {"measurement": "basal marker expression (GSEA)", "setting": "[1]", "result": "relatively low level"},
      {"measurement": "luminal signature (GSEA)", "setting": "[1]", "result": "strong luminal signature"},
      {"measurement": "basal marker CDH3 expression, decrease compared with the vehicle", "setting": "[2]", "result": 6, "unit": "fold"},
      {"measurement": "basal marker KRT6A expression, decrease compared with the vehicle", "setting": "[2]", "result": 9, "unit": "fold"},
      {"measurement": "luminal marker FOXA1 expression, increase compared with the vehicle", "setting": "[2]", "result": 1.8, "unit": "fold"},
      {"measurement": "luminal marker GATA3 expression, increase compared with the vehicle", "setting": "[2]", "result": 1.8, "unit": "fold"},
      {"measurement": "Shh gene expression level, increase compared to the vehicle control", "setting": "Shh gene [3]", "result": 11, "unit": "fold"},
      {"measurement": "Shh gene expression level, increase compared to the vehicle control", "setting": "Shh gene [4]", "result": 9, "unit": "fold"},
      {"measurement": "Krt18 expression, increase compared with the vehicle control", "setting": "[5]", "result": 2, "unit": "fold"},
      {"measurement": "Krt20 expression, increase compared with the vehicle control", "setting": "[5]", "result": 1.5, "unit": "fold"},
      {"measurement": "Upk1a expression, increase compared with the vehicle control", "setting": "[5]", "result": 3, "unit": "fold"},
      {"measurement": "Upk1b expression, increase compared with the vehicle control", "setting": "[5]", "result": 2, "unit": "fold"},
      {"measurement": "Upk2 expression, increase compared with the vehicle control", "setting": "[5]", "result": 2, "unit": "fold"},
      {"measurement": "Upk3a expression, increase compared with the vehicle control", "setting": "[5]", "result": 2.5, "unit": "fold"},
      {"measurement": "Upk3b expression, increase compared with the vehicle control", "setting": "[5]", "result": 2, "unit": "fold"},
      {"measurement": "tumor lesions compared with untreated group (H&E)", "setting": "[6]", "result": "smaller tumor lesions"},
      {"measurement": "expression of luminal subtype marker Ck18 (immunostaining)", "setting": "Ck18", "result": "increased"},
      {"measurement": "methylation level in the CpG shore upstream of the CpG island of the Shh promoter region", "setting": "[7]", "result": 36, "unit": "%"},
      {"measurement": "anticancer initiation effect in TM-treated group (stromal Hh response removed)", "setting": "[8]", "result": "reversed"},
      {"measurement": "SHH expression, increase compared with untreated control", "setting": "T24", "result": 7, "unit": "fold"},
      {"measurement": "SHH expression, increase compared with untreated control", "setting": "TCC-SUP", "result": 3, "unit": "fold"},
      {"measurement": "SHH expression, increase compared with untreated control", "setting": "J82", "result": 6, "unit": "fold"},
      {"measurement": "growth of bladder tumors", "setting": "[9]; immunocompetent wild-type mice", "result": "completely inhibits"},
      {"measurement": "invasive carcinoma (H&E)", "setting": "[9]; treated for 1.5 months, appeared in vehicle control", "result": "no invasive carcinoma appeared"},
      {"measurement": "cancer lesions in the bladder (H&E)", "setting": "J82 cells", "result": "much smaller cancer lesions"},
      {"measurement": "methylation level in the CpG shore upstream of the CpG island of the Shh promoter region", "setting": "[10]", "result": 43, "unit": "%"},
      {"measurement": "invasive carcinoma (H&E)", "setting": "[11]", "result": "not found"}
    ]}
  ]
}
